Source: ChEMBL document CHEMBL1137219, “Carbonic anhydrase inhibitors: the first on-resin screening of a 4-sulfamoylphenylthiourea library” (J Med Chem, 2004)

Assays:
Carbonic anhydrase 2 = Carbonic anhydrase 2 (Homo sapiens, UniProt P00918)
Description: Inhibitory activity against human Carbonic anhydrase II

Carbonic anhydrase 1 = Carbonic anhydrase 1 (Homo sapiens, UniProt P00915)
Chain of Carbonic anhydrase 1 (P00915 whole entry): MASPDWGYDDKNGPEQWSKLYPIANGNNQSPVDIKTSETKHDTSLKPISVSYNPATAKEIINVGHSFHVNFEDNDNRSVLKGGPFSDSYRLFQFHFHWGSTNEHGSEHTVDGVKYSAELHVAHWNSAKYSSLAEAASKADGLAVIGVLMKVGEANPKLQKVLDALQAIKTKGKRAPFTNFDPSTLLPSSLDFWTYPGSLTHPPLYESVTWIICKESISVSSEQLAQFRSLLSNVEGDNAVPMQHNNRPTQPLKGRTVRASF
Description: Inhibitory activity against human Carbonic anhydrase I

| SMILES | Ki (Carbonic anhydrase 2) [µM] | Ki (Carbonic anhydrase 1) [µM] |
| --- | --- | --- |
| CNC(=O)COC(=O)[C@H](CCC(N)=O)/N=C(\S)Nc1ccc(S(N)(=O)=O)cc1 | 0.011 | 0.053 |
| NS(=O)(=O)c1ccc(NC(=S)N[C@@H](Cc2c[nH]c3ccccc23)C(=O)O)cc1 | 0.011 | 0.047 |
| CNC(=O)COC(=O)[C@H](Cc1c[nH]c2ccccc12)NC(=S)Nc1ccc(S(N)(=O)=O)cc1 | 0.02 | 0.064 |
| NC(=O)CC[C@H](NC(=S)Nc1ccc(S(N)(=O)=O)cc1)C(=O)O | 0.009 | 0.04 |
| C[C@H](NC(=S)Nc1ccc(S(N)(=O)=O)cc1)C(=O)O | 0.012 | 0.054 |
| NS(=O)(=O)c1ccc(NC(=S)N2CCC[C@H]2C(=O)O)cc1 | 0.025 | 0.11 |
| CNC(=O)COC(=O)[C@H](CCSC)NC(=S)Nc1ccc(S(N)(=O)=O)cc1 | 0.005 | 0.031 |
| NC(=O)C[C@H](/N=C(\S)Nc1ccc(S(N)(=O)=O)cc1)C(=O)O | 0.006 | 0.027 |
| CC(C)[C@H](NC(=S)Nc1ccc(S(N)(=O)=O)cc1)C(=O)O | 0.005 | 0.023 |
| CNC(=O)COc1ccc(COC(=O)[C@H](C)NC(=S)Nc2ccc(S(N)(=O)=O)cc2)cc1 | 0.016 | 0.058 |
| CNC(=O)COC(=O)[C@H](Cc1ccccc1)NC(=S)Nc1ccc(S(N)(=O)=O)cc1 | 0.008 | 0.042 |
| CNC(=O)COC(=O)[C@@H]1CCCN1/C(S)=N\c1ccc(S(N)(=O)=O)cc1 | 0.046 | 0.197 |
| NS(=O)(=O)c1ccc(N/C(S)=N/[C@@H](Cc2ccccc2)C(=O)O)cc1 | 0.006 | 0.03 |
| CNC(=O)COC(=O)[C@H](CC(C)C)/N=C(\S)Nc1ccc(S(N)(=O)=O)cc1 | 0.007 | 0.023 |

The next lines start with the values.

| Ki (Carbonic anhydrase 2) [µM] | Ki (Carbonic anhydrase 1) [µM] | SMILES |
| --- | --- | --- |
| 0.005 | 0.025 | CC[C@H](C)[C@H](/N=C(\S)Nc1ccc(S(N)(=O)=O)cc1)C(=O)OCC(=O)NC |
| 0.005 | 0.021 | CC(C)C[C@H](NC(=S)Nc1ccc(S(N)(=O)=O)cc1)C(=O)O |
| 0.005 | 0.031 | CNC(=O)COC(=O)[C@@H](/N=C(\S)Nc1ccc(S(N)(=O)=O)cc1)C(C)C |
| 0.004 | 0.027 | CSCC[C@H](/N=C(\S)Nc1ccc(S(N)(=O)=O)cc1)C(=O)O |
| 0.004 | 0.022 | CC[C@H](C)[C@H](NC(=S)Nc1ccc(S(N)(=O)=O)cc1)C(=O)O |
| 0.004 | 0.029 | CNC(=O)COC(=O)[C@H](CC(N)=O)/N=C(\S)Nc1ccc(S(N)(=O)=O)cc1 |
